Results published in patent publication US20260055431A1, “METHODS OF DELIVERING COMPONENTS TO MICROORGANOSPHERES” (Xilis, Inc., priority 2022, published 2026).
Entries after “also recorded” stand apart in the source; their conditions may differ. Like-named read-outs stand apart in the source and are kept apart here.

Assays:
[1] = tested on: MOSs generated from biopsy material; assay: Drug effect screen on MOSs from biopsy material (Example 3); type: cell-based, human; settings: Example 3 patient biopsy
Method: (§1) In a similar set of experiments, MOSs were generated from biopsy material (FIG. 23A), and a drug effect screen was performed using the resulting MOSs. […] Thus, the MOSs correlated strongly with patient response to the standard of care drugs. In this case, the patient endured six months of side effects and toxicities that may have been avoided by the predicted response from the MOSs, indicating (within 7-10 days from the biopsy) that the tumor would not respond to these drugs.

tumor [2] = assay: Patient response to standard of care drugs (Example 3); type: in vivo, human; settings: patient treated with both Oxalipalatin and Irinotecan, after 6 months of treatment
Method: as §1

[3] = tested on: MOSs derived from multiple myeloma (MM) bone marrow biopsies; assay: Multiple myeloma MOS apoptosis assay, Caspase 3/7 green dye, Incucyte imaging; type: cell-based, human; settings: imaged every 2 hours for 4 days
Method: FIGS. 36A and 36B show the efficacy of Lenalidomide and Bortezoid on MOSs derived from multiple myeloma (MM) bone marrow biopsies. MM MOSs (on day 11) were treated with Lenalidomine (5 uM) or Bortezoid (2 nM). Caspase 3/7 green dye was added in the assay to monitor apoptosis. Incucyte images were taken every 2 hours for 4 days. […] If this test were run on, for example, traditional bulk organoids, the results would not be reliable (due to the lack of patient immune cells) leading to uncertainty in the best course of action for patient treatment.

[4] = tested on: MOSs derived from a pulmonary tumor biopsy; assay: IO assay of pulmonary tumor MOSs, Annexin V apoptosis marker; type: cell-based, human
Method: (§2) IO assays of the MOSs for these pulmonary and renal tumor biopsies were prepared with an Annexin V marker to indicate cellular apoptosis. […] If this test were run on, for example, traditional bulk organoids, the results would not be meaningful (due to the lack of patient immune cells) leading to uncertainty in the best course of action for patient treatment,
(§3) IO assays of the MOSs for this pulmonary tumor biopsy were prepared with an Annexin V marker to indicate cellular apoptosis. […] If this test were run on, for example, traditional bulk organoids, the results would be less accurate (because ESK1 would not be able to reach its target) leading to uncertainty in the best course of action for patient treatment.
as §3, with “apoptosis and Cytolight Red dye to indicate tumor infiltrating lymphocytes (TILs).” for “apoptosis.”, “(due” for “(because ESK1 would not be able”, “the inability of PBMC to penetrate the traditional bulk organoids)” for “reach its target)”
This is an indication that TILs can penetrate MOS to kill tumor cells. […]

[5] = tested on: MOSs derived from renal tumor biopsies; assay: IO assay of renal tumor MOSs, Annexin V apoptosis marker; type: cell-based, human; settings: MOSs from renal tumor biopsy
Method: as §2, with “treatment, […]” for “treatment,”

[6] = tested on: PDX240 bulk organoids and MOSs; assay: Drug response of bulk organoids vs MOSs, cell viability, PDX240; type: cell-based, human; settings: cell viabilities measured after 3 days of treatment
From the text: The MOSs may be formed from cell lines grown as part of a Patient Derived Xenograft (PDX). For example, FIGS. 28A-28D illustrate MOSs formed from cultured PDX240 cells. PDX240 cells are a Patient Derived Xenograft (PDX) tumor cell line (numbered 240 based on patient source) that were human tumors grown in immunodeficient mice (PDX) to form in vivo tumors. The xenograft tissue was extracted dissociated, and used to form MOSs as described above. In this example a single cell was included in each MOS as it was formed. […] With progressive time in culture, at least some of the MOSs show the cells dividing and forming structures.
(§4) Organoids were formed from Patient Derived Xenograft cells (including the PDX240 cells described above and a second PDX cell line, PDX19187) and were compared with MOSs formed using the same cells. The organoids were formed using conventional techniques in which a large mass of MATRIGEL in a well or dish was seeded with cells and cultured until growth was confirmed. MOSs were generated from the traditional organoids.
(§5) Both traditional (“bulk”) organoids and the MOSs were then treated with the same drugs (e.g., Oxaliplatin or SN38) and cell viabilities were measured after 3 days of treatment.

[7] = tested on: PDX19187 bulk organoids and MOSs; type: cell-based, human; settings: cell viabilities measured after 3 days of treatment
Method: as §4, §5

mouse liver MOSs = assay: Toxicity assay using mouse liver MOSs; type: cell-based; settings: 10 mM
human liver MOSs = assay: Toxicity assay using human liver MOSs; type: cell-based; settings: 10 mM
From the text: Similarly, FIGS. 34A-34B also show toxicity assays using human liver MOSs.

tumor [8] = assay: Actual tumor response of the patient to treatment (Example 2); type: in vivo, human; settings: Example 2 patient, before vs post treatment
traditional cell line = assay: Traditional (2D) cell line dosed with drug; type: cell-based; settings: all dose ranges examined
From the text: As mentioned above, the MOSs and methods of using them to screen for drug compositions may be used to accurately predict the response of a patient tumor to one or more drug therapies. […] For example, in FIG. 22A-22D, the MOSs, but not a cell line, was able to correlate with patient response.

[9] = tested on: tumor MOSs generated from a patient biopsy; assay: Drug screen on MOSs from patient biopsy (Example 2); type: cell-based, human; settings: Example 2 patient biopsy

CCc1c2c(nc3ccc(OC(=O)N4CCC(N5CCCCC5)CC4)cc13)-c1cc3c(c(=O)n1C2)COC(=O)[C@]3(O)CC [Irinotecan]
percent survival of the MOSs in the presence of the drug [1]: lack of effect
patient response (tumor [2]): no response

CC(C)C[C@H](NC(=O)[C@H](Cc1ccccc1)NC(=O)c1cnccn1)B(O)O [Bortezoid]
response in the form of tumor cell apoptosis (Caspase 3/7 green dye) ([3]; MM MOSs on day 11, 2 nM): does not and not

Nivolumab
response in the form of tumor cell apoptosis (Annexin V marker) [4]: induces apoptosis; also recorded: good response
response in the form of tumor cell apoptosis (Annexin V marker) [5]: induces apoptosis; also recorded: good response

CCc1c2c(nc3ccc(O)cc13)-c1cc3c(c(=O)n1C2)COC(=O)[C@]3(O)CC [SN38, 7-Ethyl-10-hydroxy-camptothecin]
drug response curves, bulk organoids compared with MOSs [6]: comparable responses
drug response curves, bulk organoids compared with MOSs [7]: comparable responses

CC(=O)Nc1ccc(O)cc1 [acetaminophen]
tissue in the MOSs compared with control group (mouse liver MOSs): smaller and contains many dead cells
tissue in the treated MOSs compared with control group (human liver MOSs): significant increase atypical tissue structures (arrows) and debris

O=C1[O][Pt]2([NH][C@@H]3CCCC[C@H]3[NH]2)[O]C1=O [Oxaliplatin]
tumor response to treatment (tumor [8]): responded to treatment
percent survival of the MOSs in the presence of the drug [1]: no change
effect of drug on cell line (traditional cell line): no effect
patient response (tumor [2]): no response
drug response curves, bulk organoids compared with MOSs ([7]; listed as Oxalipalatin): comparable response
cell survival from the tumor MOSs [9]: significant decreases in cell survival

Nc1cccc2c1CN(C1CCC(=O)NC1=O)C2=O (centres unmarked) [Lenalidomide]
response in the form of tumor cell apoptosis (Caspase 3/7 green dye) ([3]; MM MOSs on day 11, 5 uM): good response
response in the form of tumor cell apoptosis (Caspase 3/7 green dye) ([3]; MM MOSs on day 11, 5 uM, listed as Lenalidomine): induces apoptosis
